Source: ChEMBL document CHEMBL1201862, “PubChem BioAssay data set” (2004)
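Method: 48-hour compound exposure of cells in 96-well plates, five concentrations, linear interpolation of endpoints. Here, GI50 denotes the concentration required for 50% inhibition of growth.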 Calls of active or inactive are those of the source. Cut-off read from the data, not from the text of the source: active = GI50 up to about 1.1 µM and inactive = higher.

Columns and labels:
Test in all cases: growth of human tumour cells (NCI), 48 h
NCI/ADR-RES = tested on: NCI/ADR-RES
OVCAR-5 = tested on: OVCAR-5
KM12 = tested on: KM12
M14 = tested on: M14
Hs-578T = tested on: Hs-578T
SW-620 = tested on: SW-620
MCF7 = tested on: MCF7
COLO 205 = tested on: COLO 205
OVCAR-3 = tested on: OVCAR-3
SF-539 = tested on: SF-539
NCI-H23 = tested on: NCI-H23
HOP-62 = tested on: HOP-62
MDA-MB-435 = tested on: MDA-MB-435
OVCAR-4 = tested on: OVCAR-4
HT-29 = tested on: HT-29
DU-145 = tested on: DU-145
T47D = tested on: T47D
SK-MEL-2 = tested on: SK-MEL-2
A498 = tested on: A498
HCC 2998 = tested on: HCC 2998

Measured: GI50

O=C(NC(=S)Nc1ccc2c(c1)Sc1ccccc1O2)c1ccc([N+](=O)[O-])cc1
inactive: NCI/ADR-RES > 100 µM | OVCAR-5 > 100 µM | KM12 > 100 µM | M14 > 100 µM | Hs-578T > 100 µM | SW-620 > 100 µM | MCF7 > 100 µM | COLO 205 > 100 µM | OVCAR-3 > 100 µM | SF-539 > 100 µM | NCI-H23 > 100 µM | HOP-62 > 100 µM | MDA-MB-435 > 100 µM | OVCAR-4 > 100 µM | HT-29 > 100 µM | DU-145 > 100 µM | T47D > 100 µM | SK-MEL-2 > 100 µM

CC(=O)OCc1cc(CCC(=O)NCCNc2c3ccccc3nc3ccccc23)cc(COC(C)=O)c1O[Si](C)(C)C(C)(C)C
inactive: NCI/ADR-RES 20.7 µM | OVCAR-5 13.4 µM | KM12 2.95 µM | M14 5.26 µM | Hs-578T 3.3 µM | SW-620 9.44 µM | A498 1.91 µM | MCF7 2.2 µM | COLO 205 4.35 µM | OVCAR-3 2 µM | SF-539 2.59 µM | NCI-H23 14.5 µM | HOP-62 13.6 µM | MDA-MB-435 2.97 µM | OVCAR-4 6.19 µM | HT-29 2.63 µM | DU-145 12.1 µM | T47D 1.97 µM | SK-MEL-2 8.95 µM

COc1cc(/C=C/c2ccc(C)cc2)cc(OC)c1OC
inactive: HCC 2998 4.82 µM | NCI/ADR-RES 2.07 µM | OVCAR-5 12.7 µM | KM12 3.66 µM | M14 3.56 µM | Hs-578T 2.56 µM | SW-620 4.29 µM | MCF7 3.46 µM | COLO 205 3.16 µM | OVCAR-3 2.48 µM | SF-539 2.42 µM | NCI-H23 2.9 µM | HOP-62 4.18 µM | MDA-MB-435 1.14 µM | OVCAR-4 17.3 µM | HT-29 2.69 µM | DU-145 3.01 µM | T47D 4.1 µM | SK-MEL-2 7.18 µM

O=C1C(=CNc2ccc([N+](=O)[O-])cc2)C(=O)N(c2ccccc2)C(=O)N1c1ccccc1
inactive: HCC 2998 > 100 µM | NCI/ADR-RES > 100 µM | OVCAR-5 > 100 µM | KM12 36.7 µM | M14 73.1 µM | Hs-578T > 100 µM | SW-620 > 100 µM | A498 > 100 µM | MCF7 > 100 µM | COLO 205 > 100 µM | OVCAR-3 56.6 µM | NCI-H23 > 100 µM | HOP-62 > 100 µM | MDA-MB-435 > 100 µM | OVCAR-4 > 100 µM | HT-29 > 100 µM | T47D 70.1 µM | SK-MEL-2 85.7 µM

OC(c1ccoc1)c1cc2ccccc2s1 (stereo not given)
inactive: HCC 2998 > 10 µM | NCI/ADR-RES > 10 µM | OVCAR-5 > 10 µM | KM12 > 10 µM | M14 > 10 µM | Hs-578T > 10 µM | SW-620 > 10 µM | MCF7 > 10 µM | COLO 205 > 10 µM | OVCAR-3 > 10 µM | SF-539 > 10 µM | NCI-H23 > 10 µM | HOP-62 > 10 µM | MDA-MB-435 > 10 µM | OVCAR-4 > 10 µM | HT-29 > 10 µM | DU-145 > 10 µM | T47D > 10 µM | SK-MEL-2 > 10 µM

CC(=O)OCC(C)C1=C(O)C(=O)C2(C)C/C=C(/C)CC/C=C(\C)CCC(O)C(C)CCC12 (stereo not given)
inactive: NCI/ADR-RES 21.1 µM | OVCAR-5 17.3 µM | KM12 14.2 µM | M14 17.8 µM | Hs-578T 19.6 µM | SW-620 19.2 µM | A498 21.6 µM | MCF7 24.9 µM | COLO 205 17.1 µM | OVCAR-3 15.1 µM | SF-539 16.3 µM | NCI-H23 17.8 µM | HOP-62 17 µM | MDA-MB-435 17.5 µM | OVCAR-4 17.5 µM | HT-29 17.3 µM | DU-145 17.9 µM | T47D 1.94 µM | SK-MEL-2 20.7 µM

COc1cc(Nc2cnc3cc(F)c(F)cc3n2)cc(OC)c1
inactive: NCI/ADR-RES 90.4 µM | OVCAR-5 > 100 µM | KM12 > 100 µM | M14 > 100 µM | Hs-578T 37.7 µM | SW-620 > 100 µM | A498 53.6 µM | MCF7 > 100 µM | COLO 205 > 100 µM | OVCAR-3 > 100 µM | SF-539 71 µM | NCI-H23 20.8 µM | HOP-62 25.9 µM | MDA-MB-435 > 100 µM | OVCAR-4 > 100 µM | HT-29 > 100 µM | DU-145 > 100 µM | T47D > 100 µM | SK-MEL-2 > 100 µM

COc1cc(OC)c2c(c1)OC(c1ccccc1)CC2=O (stereo not given) [DIMETHYLPINOCEMBRIN]
inactive: HCC 2998 > 10 µM | NCI/ADR-RES > 10 µM | OVCAR-5 > 10 µM | KM12 > 10 µM | M14 > 10 µM | Hs-578T > 10 µM | SW-620 > 10 µM | MCF7 > 10 µM | COLO 205 > 10 µM | OVCAR-3 > 10 µM | SF-539 > 10 µM | NCI-H23 > 10 µM | HOP-62 > 10 µM | MDA-MB-435 > 10 µM | OVCAR-4 > 10 µM | HT-29 > 10 µM | DU-145 > 10 µM | T47D > 10 µM | SK-MEL-2 > 10 µM

Cc1ccc(/N=N/c2c(O)c(C(=O)Nc3ccccc3)cc3ccccc23)c([N+](=O)[O-])c1
inactive: NCI/ADR-RES > 100 µM | OVCAR-5 > 100 µM | KM12 > 100 µM | M14 > 100 µM | Hs-578T > 100 µM | SW-620 > 100 µM | A498 > 100 µM | COLO 205 > 100 µM | OVCAR-3 > 100 µM | NCI-H23 > 100 µM | HOP-62 > 100 µM | MDA-MB-435 > 100 µM | OVCAR-4 > 100 µM | HT-29 > 100 µM | DU-145 > 100 µM | T47D > 100 µM | SK-MEL-2 > 100 µM

O=C(C#Cc1cn(C2CC(O)C(CO)O2)c(=O)[nH]c1=O)c1ccccc1 (stereo not given)
inactive: HCC 2998 > 100 µM | NCI/ADR-RES 32.6 µM | KM12 > 100 µM | M14 28.5 µM | Hs-578T 79.3 µM | SW-620 25.2 µM | MCF7 33.3 µM | COLO 205 28.6 µM | OVCAR-3 21.1 µM | SF-539 23.2 µM | NCI-H23 > 100 µM | HOP-62 > 100 µM | MDA-MB-435 58.9 µM | OVCAR-4 51.4 µM | HT-29 > 100 µM | DU-145 > 100 µM | T47D 19.5 µM | SK-MEL-2 > 100 µM
